Assays:
[1] = tested on: HOP-62; test: NCI human tumor cell panel: HOP-62 (Non-Small Cell Lung Cancer); assay type: cell-based
[2] = tested on: SNB-75; test: NCI human tumor cell panel: SNB-75 (CNS Cancer); assay type: cell-based
[3] = tested on: UO-31; test: NCI human tumor cell panel: UO-31 (Renal Cancer); assay type: cell-based
[4] = tested on: HCT-15; test: NCI human tumor cell panel: HCT-15 (Colon Cancer); assay type: cell-based
[5] = tested on: LOX IMVI; test: NCI human tumor cell panel: LOX IMVI (Melanoma); assay type: cell-based
[6] = tested on: HCT-116; test: NCI human tumor cell panel: HCT-116 (Colon Cancer); assay type: cell-based
[7] = tested on: HOP-92; test: NCI human tumor cell panel: HOP-92 (Non-Small Cell Lung Cancer)
[8] = tested on: MOLT-4; test: NCI human tumor cell panel: MOLT-4 (Leukemia); assay type: cell-based
[9] = tested on: M14; test: NCI human tumor cell panel: M14 (Melanoma); assay type: cell-based
[10] = tested on: UACC-257; test: NCI human tumor cell panel: UACC-257 (Melanoma); assay type: cell-based
[11] = tested on: UACC-62; test: NCI human tumor cell panel: UACC-62 (Melanoma); assay type: cell-based
[12] = tested on: U251; test: NCI human tumor cell panel: U251 (CNS Cancer); assay type: cell-based
[13] = tested on: SF-539; test: NCI human tumor cell panel: SF-539 (CNS Cancer); assay type: cell-based
[14] = tested on: MDA-N; test: NCI human tumor cell panel: MDA-N (Breast Cancer); assay type: cell-based
[15] = tested on: OVCAR-4; test: NCI human tumor cell panel: OVCAR-4 (Ovarian Cancer); assay type: cell-based
[16] = tested on: KM12; test: NCI human tumor cell panel: KM12 (Colon Cancer); assay type: cell-based
[17] = tested on: OVCAR-3; test: NCI human tumor cell panel: OVCAR-3 (Ovarian Cancer); assay type: cell-based
[18] = tested on: RPMI-8226; test: NCI human tumor cell panel: RPMI-8226 (Leukemia); assay type: cell-based
[19] = tested on: HCC-2998; test: NCI human tumor cell panel: HCC-2998 (Colon Cancer); assay type: cell-based
[20] = tested on: OVCAR-8; test: NCI human tumor cell panel: OVCAR-8 (Ovarian Cancer); assay type: cell-based
[21] = tested on: MCF7; test: NCI human tumor cell panel: MCF7 (Breast Cancer); assay type: cell-based
[22] = tested on: HT29; test: NCI human tumor cell panel: HT29 (Colon Cancer); assay type: cell-based
[23] = tested on: DU-145; test: NCI human tumor cell panel: DU-145 (Prostate Cancer); assay type: cell-based
[24] = tested on: SW-620; test: NCI human tumor cell panel: SW-620 (Colon Cancer); assay type: cell-based
[25] = tested on: MALME-3M; test: NCI human tumor cell panel: MALME-3M (Melanoma); assay type: cell-based; conditions: Malme-3M
[26] = tested on: SF-295; test: NCI human tumor cell panel: SF-295 (CNS Cancer); assay type: cell-based
[27] = tested on: EKVX; test: NCI human tumor cell panel: EKVX (Non-Small Cell Lung Cancer); assay type: cell-based
[28] = tested on: SR; test: NCI human tumor cell panel: SR (Leukemia); assay type: cell-based
[29] = tested on: NCI-H460; test: NCI human tumor cell panel: NCI-H460 (Non-Small Cell Lung Cancer); assay type: cell-based
[30] = read-out: Log10 GI50 (converted)
[31] = read-out: Log10 TGI (converted)

## OCc1ccc(-c2ccc(-c3ccc[se]3)[se]2)[se]1 [compound 675246]
[1]; HOP-62, read-out: Log10 GI50 (converted)
  GI50: 7.24 µM
[1]; HOP-62, read-out: Log10 TGI (converted)
  IC (TGI): 20.4 µM
[2]; SNB-75, read-out: Log10 GI50 (converted)
  GI50: 3.89 µM
[2]; SNB-75, read-out: Log10 TGI (converted)
  IC (TGI): > 100 µM
[3]; UO-31, read-out: Log10 GI50 (converted)
  GI50: 6.17 µM
[3]; UO-31, read-out: Log10 TGI (converted)
  IC (TGI): 38.9 µM
[4]; HCT-15, read-out: Log10 GI50 (converted)
  GI50: 4.27 µM
[4]; HCT-15, read-out: Log10 TGI (converted)
  IC (TGI): 17.8 µM
[5]; [30]
  GI50: 3.63 µM
[5]; [31]
  IC (TGI): 9.77 µM
[6]; HCT-116, read-out: Log10 GI50 (converted)
  GI50: 0.0646 µM
[6]; HCT-116, read-out: Log10 TGI (converted)
  IC (TGI): 10.7 µM
[7]; HOP-92, read-out: Log10 GI50 (converted)
  GI50: 2.63 µM
[7]; HOP-92, read-out: Log10 TGI
  IC (TGI): 11.2 µM
[8]; MOLT-4, read-out: Log10 GI50 (converted)
  GI50: 3.24 µM
[8]; MOLT-4, read-out: Log10 TGI (converted)
  IC (TGI): 12 µM
[9]; M14, read-out: Log10 GI50 (converted)
  GI50: 8.71 µM
[9]; M14, read-out: Log10 TGI (converted)
  IC (TGI): 24 µM
[10]; UACC-257, read-out: Log10 GI50 (converted)
  GI50: 0.0501 µM
[10]; UACC-257, read-out: Log10 TGI (converted)
  IC (TGI): 0.224 µM
[11]; UACC-62, read-out: Log10 GI50 (converted)
  GI50: 0.0102 µM
[11]; UACC-62, read-out: Log10 TGI (converted)
  IC (TGI): 11.2 µM
[12]; U-251, U251, read-out: Log10 GI50 (converted)
  GI50: 0.0708 µM
[12]; U-251, U251, read-out: Log10 TGI (converted)
  IC (TGI): 12.3 µM
[13]; SF-539, read-out: Log10 GI50 (converted)
  GI50: 12.3 µM
[13]; SF-539, read-out: Log10 TGI (converted)
  IC (TGI): 25.1 µM
[14]; [30]
  GI50: 9.77 µM
[14]; [31]
  IC (TGI): 56.2 µM
[15]; OVCAR-4, read-out: Log10 GI50 (converted)
  GI50: 0.575 µM
[15]; OVCAR-4, read-out: Log10 TGI (converted)
  IC (TGI): 12.3 µM
[16]; KM12, read-out: Log10 GI50 (converted)
  GI50: 4.17 µM
[16]; KM12, read-out: Log10 TGI (converted)
  IC (TGI): 17 µM
[17]; OVCAR-3, read-out: Log10 GI50 (converted)
  GI50: 0.0603 µM
[17]; OVCAR-3, read-out: Log10 TGI (converted)
  IC (TGI): 1.29 µM
[18]; RPMI-8226, read-out: Log10 GI50 (converted)
  GI50: 7.41 µM
[18]; RPMI-8226, read-out: Log10 TGI
  IC (TGI): > 100 µM
[19]; HCC-2998, read-out: Log10 GI50 (converted)
  GI50: 1.23 µM
[19]; HCC-2998, read-out: Log10 TGI (converted)
  IC (TGI): 11.7 µM
[20]; OVCAR-8, read-out: Log10 GI50 (converted)
  GI50: 5.01 µM
[20]; OVCAR-8, read-out: Log10 TGI (converted)
  IC (TGI): 33.1 µM
[21]; MCF7, read-out: Log10 GI50 (converted)
  GI50: 0.145 µM
[21]; MCF7, read-out: Log10 TGI (converted)
  IC (TGI): 3.8 µM
[22]; HT-29, HT29, read-out: Log10 GI50 (converted)
  GI50: 0.851 µM
[22]; HT-29, HT29, read-out: Log10 TGI (converted)
  IC (TGI): 10.7 µM
[23]; DU-145, read-out: Log10 GI50 (converted)
  GI50: 10.2 µM
[23]; DU-145, read-out: Log10 TGI (converted)
  IC (TGI): 21.9 µM
[24]; SW-620, read-out: Log10 GI50 (converted)
  GI50: 0.417 µM
[24]; SW-620, read-out: Log10 TGI (converted)
  IC (TGI): 10.2 µM
[25]; [30]
  GI50: 6.17 µM
[25]; [31]
  IC (TGI): 19.5 µM
[26]; SF-295, read-out: Log10 GI50 (converted)
  GI50: 10.7 µM
[26]; SF-295, read-out: Log10 TGI (converted)
  IC (TGI): 27.5 µM
[27]; [30]
  GI50: 5.5 µM
[27]; [31]
  IC (TGI): 17.4 µM
[28]; [30]
  GI50: 6.61 µM
[28]; [31]
  IC (TGI): > 100 µM
[29]; NCI-H460, read-out: Log10 GI50 (converted)
  GI50: 0.324 µM
[29]; NCI-H460, read-out: Log10 TGI (converted)
  IC (TGI): 3.63 µM

From patent US20040063662A1, “Selenophene anti-tumor agents” (priority 1996, published 2004)
